“And” between values parts separate entries of the source, which are not always exact repeats. Equal entries are not always repeated.

In the assay the test system is Swiss mice, Sarcoma 180 sc, mean tumor weight T/C. Briefly: NCI In Vivo Anticancer Drug Screen. Data for tumor model Sarcoma 180 (subcutaneous) in Swiss mice. Conditions: endpoint: mean tumor weight, higher = larger tumour. In outline:
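Tumor-bearing mice, transplantable tumor; readout survival or tumor size; result = T/C, treated vs vehicle control.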

In the case of `C[C@]12C=CC(=O)C=C1CC[C@@H]1[C@@H]2[C@@H](O)C[C@@]2(C)[C@H]1CC[C@]2(O)C(=O)CF`, the T/C reads like this: (dose: 6.0 mg/kg/injection, schedule: Q01DX007 (sc), vehicle: steriod suspending solution) 77 % of control; (dose: 9.0 mg/kg/injection, schedule: Q01DX007 (sc), vehicle: steriod suspending solution) 91 % of control; (dose: 13.3 mg/kg/injection, schedule: Q01DX007 (sc), vehicle: steriod suspending solution) 82 % of control; (dose: 20.0 mg/kg/injection, schedule: Q01DX007 (sc), vehicle: steriod suspending solution) 35 % of control and 49 % of control and 54 % of control; (dose: 45.0 mg/kg/injection, schedule: Q01DX007 (sc), vehicle: steriod suspending solution) 32 % of control; (dose: 70.0 mg/kg/injection, schedule: Q01DX007 (sc), vehicle: steriod suspending solution) 27 % of control and 32 % of control and 36 % of control. For the same compound, the T/C is 32 % of control (dose: 107.0 mg/kg/injection, schedule: Q01DX007 (sc), vehicle: steriod suspending solution); 36 % of control (dose: 158.0 mg/kg/injection, schedule: Q01DX007 (sc), vehicle: steriod suspending solution); 24 % of control (dose: 160.0 mg/kg/injection, schedule: Q01DX007 (sc), vehicle: steriod suspending solution); 52 % of control (dose: 352.0 mg/kg/injection, schedule: Q01DX007 (sc), vehicle: steriod suspending solution); 33 % of control (dose: 358.0 mg/kg/injection, schedule: Q01DX007 (sc), vehicle: steriod suspending solution); 33 % of control (dose: 360.0 mg/kg/injection, schedule: Q01DX007 (sc), vehicle: steriod suspending solution). In addition, the T/C is 39 % of control and 56 % of control (dose: 537.0 mg/kg/injection, schedule: Q01DX007 (sc), vehicle: steriod suspending solution); 20 % of control and 22 % of control (dose: 540.0 mg/kg/injection, schedule: Q01DX007 (sc), vehicle: steriod suspending solution); 49 % of control (dose: 801.0 mg/kg/injection, schedule: Q01DX007 (sc), vehicle: steriod suspending solution); 61 % of control (dose: 1202.0 mg/kg/injection, schedule: Q01DX007 (sc), vehicle: steriod suspending solution).
As for `O=C(Nc1ccc2c(c1)Cc1cccc(NC(=O)C(Cl)Cl)c1-2)C(Cl)Cl`, the T/C is 76 % of control (dose: 222.0 mg/kg/injection, schedule: Q01DX007 (ip), vehicle: carboxymethylcellulose (CMC)); 46 % of control (dose: 222.0 mg/kg/injection, schedule: Q01DX007 (ip), vehicle: methylcellulose (MC)); 52 % of control (dose: 222.0 mg/kg/injection, schedule: Q01DX007 (ip), vehicle: other); 70 % of control and 90 % of control (dose: 333.0 mg/kg/injection, schedule: Q01DX007 (ip), vehicle: carboxymethylcellulose (CMC)); 69 % of control (dose: 333.0 mg/kg/injection, schedule: Q01DX007 (ip), vehicle: methylcellulose (MC)); 81 % of control (dose: 333.0 mg/kg/injection, schedule: Q01DX007 (ip), vehicle: other). For the same compound, the T/C was 48 % of control and 58 % of control (dose: 500.0 mg/kg/injection, schedule: Q01DX007 (ip), vehicle: carboxymethylcellulose (CMC)); 87 % of control (dose: 500.0 mg/kg/injection, schedule: Q01DX007 (ip), vehicle: methylcellulose (MC)); 122 % of control (dose: 500.0 mg/kg/injection, schedule: Q01DX007 (ip), vehicle: other); 48 % of control (dose: 750.0 mg/kg/injection, schedule: Q01DX007 (ip), vehicle: carboxymethylcellulose (CMC)); 46 % of control (dose: 750.0 mg/kg/injection, schedule: Q01DX007 (ip), vehicle: methylcellulose (MC)); 89 % of control (dose: 750.0 mg/kg/injection, schedule: Q01DX007 (ip), vehicle: other).
Turning to `Clc1[nH]nc2ccccc12`, for the setting “dose: 42.0 mg/kg/injection, schedule: Q#A X014 (ip), vehicle: methylcellulose (MC)”, the T/C is 62 % of control and 85 % of control (2×).
Turning to `N#Cc1ccc(S(N)(=O)=O)cc1`, the T/C is 76 % of control (dose: 30.0 mg/kg/injection, schedule: Q01DX007 (ip), vehicle: alkali diluted with saline); 70 % of control (dose: 33.0 mg/kg/injection, schedule: Q01DX007 (ip), vehicle: other); 71 % of control (dose: 44.0 mg/kg/injection, schedule: Q01DX007 (ip), vehicle: alkali diluted with saline); 68 % of control (dose: 49.0 mg/kg/injection, schedule: Q01DX007 (ip), vehicle: other); 54 % of control (dose: 66.0 mg/kg/injection, schedule: Q01DX007 (ip), vehicle: alkali diluted with saline); 59 % of control (dose: 74.0 mg/kg/injection, schedule: Q01DX007 (ip), vehicle: other). Moreover, the T/C by setting is: (dose: 100.0 mg/kg/injection, schedule: Q01DX007 (ip), vehicle: alkali diluted with saline) 39 % of control; (dose: 111.0 mg/kg/injection, schedule: Q01DX007 (ip), vehicle: other) 45 % of control and 60 % of control; (dose: 166.0 mg/kg/injection, schedule: Q01DX007 (ip), vehicle: other) 34 % of control; (dose: 250.0 mg/kg/injection, schedule: Q01DX007 (ip), vehicle: other) 13 % of control.
As for `C=CCSc1ncnc2c1ncn2C1OC(CO)C(O)C1O` (configuration not stated), the T/C is 80 % of control and 83 % of control (dose: 25.0 mg/kg/injection, schedule: Q01DX007 (ip), vehicle: saline); 35 % of control and 52 % of control (dose: 100.0 mg/kg/injection, schedule: Q01DX007 (ip), vehicle: saline); 34 % of control and 49 % of control (dose: 200.0 mg/kg/injection, schedule: Q01DX007 (ip), vehicle: saline).
As to `CC(=O)OCC1OC(n2ccc(N)nc2=O)C(OC(C)=O)C1OC(C)=O` (configuration not stated), the T/C was 44 % of control (dose: 50.0 mg/kg/injection, schedule: Q01DX007 (oral), vehicle: carboxymethylcellulose (CMC)); 32 % of control (dose: 100.0 mg/kg/injection, schedule: Q01DX007 (oral), vehicle: carboxymethylcellulose (CMC)); 32 % of control (dose: 200.0 mg/kg/injection, schedule: Q01DX007 (oral), vehicle: carboxymethylcellulose (CMC)); 63 % of control (dose: 400.0 mg/kg/injection, schedule: Q01DX007 (oral), vehicle: carboxymethylcellulose (CMC)).
For `COc1cccc2c1-c1ccccc1C2`, the T/C is, setting by setting: (dose: 62.5 mg/kg/injection, schedule: Q01DX007 (ip), vehicle: carboxymethylcellulose (CMC)) 151 % of control; (dose: 250.0 mg/kg/injection, schedule: Q01DX007 (ip), vehicle: carboxymethylcellulose (CMC)) 114 % of control.
As for `C[C@]12CC[C@H](O)C[C@H]1CC[C@@H]1[C@@H]2CC[C@]2(C)[C@@H](C3=CC(=O)OC3)CC[C@]12O`, the T/C was 79 % of control (dose: 5.0 mg/kg/injection, schedule: Q01DX007 (ip), vehicle: carboxymethylcellulose (CMC)); 68 % of control (dose: 10.0 mg/kg/injection, schedule: Q01DX007 (ip), vehicle: carboxymethylcellulose (CMC)); 86 % of control (dose: 25.0 mg/kg/injection, schedule: Q01DX007 (ip), vehicle: carboxymethylcellulose (CMC)).
In the case of `O=C(O)CCc1c[nH]c2ccc(N(CCCl)CCCl)cc12`, the T/C (dose: 2.0 mg/kg/injection, schedule: Q01DX007 (ip), vehicle: carboxymethylcellulose (CMC)) was 47 % of control and the T/C (dose: 4.0 mg/kg/injection, schedule: Q01DX007 (ip), vehicle: carboxymethylcellulose (CMC)) was 32 % of control.
With `O=C1N(Cl)C(=O)C(c2ccccc2)(c2ccc(F)cc2)N1Cl` (configuration not stated), the T/C (dose: 17.5 mg/kg/injection, schedule: Q#A X014 (ip), vehicle: methylcellulose (MC)) is 121 % of control; the T/C (dose: 42.5 mg/kg/injection, schedule: Q#A X014 (ip), vehicle: methylcellulose (MC)) is 88 % of control; the T/C (dose: 62.5 mg/kg/injection, schedule: Q#A X014 (ip), vehicle: methylcellulose (MC)) was 75 % of control.
Consider `Clc1c(Cl)c(Cl)c(SCc2ccccc2)c(Cl)c1Cl`, for which the T/C was 83 % of control (dose: 111.0 mg/kg/injection, schedule: Q#A X014 (ip), vehicle: saline); 70 % of control (dose: 166.5 mg/kg/injection, schedule: Q#A X014 (ip), vehicle: saline); 42 % of control (dose: 250.0 mg/kg/injection, schedule: Q#A X014 (ip), vehicle: saline); 38 % of control (dose: 375.0 mg/kg/injection, schedule: Q#A X014 (ip), vehicle: saline).
In the case of `CC(=O)OCC1OC(n2cnc3c(=S)nc[nH]c32)C(OC(C)=O)C1OC(C)=O` (configuration not stated), the T/C reads like this: (dose: 20.0 mg/kg/injection, schedule: Q01DX007 (ip), vehicle: carboxymethylcellulose (CMC)) 81 % of control; (dose: 30.0 mg/kg/injection, schedule: Q01DX007 (ip), vehicle: carboxymethylcellulose (CMC)) 75 % of control; (dose: 45.0 mg/kg/injection, schedule: Q01DX007 (ip), vehicle: carboxymethylcellulose (CMC)) 54 % of control.
For the compound `Cc1ccc(S(=O)(=O)N=S2CCCC2)cc1`, the T/C was 90 % of control (dose: 111.0 mg/kg/injection, schedule: Q#A X014 (ip), vehicle: water); 107 % of control (dose: 166.5 mg/kg/injection, schedule: Q#A X014 (ip), vehicle: water); 91 % of control (dose: 250.0 mg/kg/injection, schedule: Q#A X014 (ip), vehicle: water); 66 % of control (dose: 375.0 mg/kg/injection, schedule: Q#A X014 (ip), vehicle: water).

The values above are taken from PubChem BioAssay AID342 (DTP/NCI, 2004).
